In patent US20230322761A1, “DEGRADATION OF BRUTON'S TYROSINE KINASE (BTK) BY CONJUGATION OF BTK INHIBITORS WITH E3 LIGASE LIGAND AND METHODS OF USE” (BEIGENE, LTD., priority 2020, published 2023) one finds DC50 data, which are given here for 7 compounds.

Where “and” joins values, the source holds several entries; their conditions need not be identical. Equal entries are not always repeated.

T1 sequence (Q06187 whole entry): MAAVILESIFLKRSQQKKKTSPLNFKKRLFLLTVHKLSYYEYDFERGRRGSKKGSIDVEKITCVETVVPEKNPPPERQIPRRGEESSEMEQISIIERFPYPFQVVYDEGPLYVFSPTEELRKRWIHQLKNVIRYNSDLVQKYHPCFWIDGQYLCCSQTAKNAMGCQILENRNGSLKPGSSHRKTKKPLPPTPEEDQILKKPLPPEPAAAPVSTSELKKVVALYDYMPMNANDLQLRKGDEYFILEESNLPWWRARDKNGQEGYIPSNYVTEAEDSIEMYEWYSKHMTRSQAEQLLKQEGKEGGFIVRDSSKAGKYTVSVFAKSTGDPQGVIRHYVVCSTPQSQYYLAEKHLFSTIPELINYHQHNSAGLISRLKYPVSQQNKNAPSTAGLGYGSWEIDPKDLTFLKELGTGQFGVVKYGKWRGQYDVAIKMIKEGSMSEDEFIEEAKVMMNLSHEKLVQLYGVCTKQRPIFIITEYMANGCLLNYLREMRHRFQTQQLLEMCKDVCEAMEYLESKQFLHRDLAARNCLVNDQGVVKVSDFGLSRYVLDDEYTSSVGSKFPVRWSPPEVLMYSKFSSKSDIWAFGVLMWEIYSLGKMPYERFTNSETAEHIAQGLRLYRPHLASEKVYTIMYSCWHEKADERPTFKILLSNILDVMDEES

This assay concerns the target T1, BTK (Homo sapiens, UniProt Q06187).
T1 construct: endogenous in cells; host or cells: TMD-8 cells
Briefly: BTK degradation in TMD-8 cells, HTRF assay after 6 h treatment. The assay is classed as cell-based. As to conditions: IC50 (DC50) of BTK degradation. The method, boiled down:
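Remaining BTK was quantified by HTRF in lysates of TMD-8 cells after 6 h exposure to an 8-point, 6-fold compound series (500× stocks in DMSO starting at 1 mM; 0.2% DMSO). Lysis 30 min, antibodies overnight at room temperature, ratio read at 665/620 nm; DC50 fitted with a four-parameter logistic equation.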
A general note: Time-resolved FRET reads energy transfer from a long-lived donor to a nearby acceptor.
By DC50 is commonly meant the midpoint of the concentration-degradation curve. A higher DC50 goes with degradation only at high concentration. As to `Cc1cc(-c2n[nH]c3ncc(-c4ccc(N5CCN(CC6CCN(c7ccc(N8CCC(=O)NC8=O)cc7)CC6)CC5)cn4)cc23)ccc1CNC(=O)c1noc(C(C)(C)C)n1` [Example 66, 5-(tert-butyl)-N-(4-(5-(5-(4-((1-(4-(2,4-dioxotetrahydropyrimidin-1(2H)-yl)phenyl)piperidin-4-yl)methyl)piperazin-1-yl)pyridin-2-yl)-1H-pyrazolo[3,4-b]pyridin-3-yl)-2-methylbenzyl)-1,2,4-oxadiazole-3-carboxamide], the DC50 came to 5.32 nM. In other words, the single-digit nanomolar range.
Under `Cc1cc(-c2n[nH]c3ncc(-c4ccc(N5CCN(CC6CCN(c7ccc(N8CCC(=O)NC8=O)cc7)CC6)CC5)nc4)cc23)ccc1CNC(=O)c1nc(C(C)(C)C)no1` [Example 68, 3-(tert-butyl)-N-(4-(5-(6-(4-((1-(4-(2,4-dioxotetrahydropyrimidin-1(2H)-yl)phenyl)piperidin-4-yl)methyl)piperazin-1-yl)pyridin-3-yl)-1H-pyrazolo[3,4-b]pyridin-3-yl)-2-methylbenzyl)-1,2,4-oxadiazole-5-carboxamide] stands 1.47 nM; under `Cc1cc(-c2n[nH]c3ncc(-c4ccc(N5CCN(CC6CCN(c7ccc(N8CCC(=O)NC8=O)c(C)c7)CC6)CC5)nc4)cc23)ccc1CNC(=O)c1noc(C(C)(C)C)n1` [Example 69, 5-(tert-butyl)-N-(4-(5-(6-(4-((1-(4-(2,4-dioxotetrahydropyrimidin-1(2H)-yl)-3-methylphenyl)piperidin-4-yl)methyl)piperazin-1-yl)pyridin-3-yl)-1H-pyrazolo[3,4-b]pyridin-3-yl)-2-methylbenzyl)-1,2,4-oxadiazole-3-carboxamide], 2.5 nM and 2.37 nM; under `Cc1cc(-c2n[nH]c3ncc(-c4ccc(C5CCN(CC6CCN(c7ccc(N8CCC(=O)NC8=O)cc7)CC6)CC5)nc4)cc23)ccc1[C@@H](C)NC(=O)c1noc(C(C)(C)C)n1` [Example 71, (R)-5-(tert-butyl)-N-(1-(4-(5-(6-(1-((1-(4-(2,4-dioxotetrahydropyrimidin-1(2H)-yl)phenyl)piperidin-4-yl)methyl)piperidin-4-yl)pyridin-3-yl)-1H-pyrazolo[3,4-b]pyridin-3-yl)-2-methylphenyl)ethyl)-1,2,4-oxadiazole-3-carboxamide], 4.03 nM.
As for `Cc1cc(-c2n[nH]c3ncc(-c4ccc(C5CCN(CC6CCN(c7ccc(N8CCC(=O)NC8=O)cc7)CC6)CC5)cn4)cc23)ccc1[C@@H](C)NC(=O)c1noc(C(C)(C)C)n1` [Example 72, (R)-5-(tert-butyl)-N-(1-(4-(5-(5-(1-((1-(4-(2,4-dioxotetrahydropyrimidin-1(2H)-yl)phenyl)piperidin-4-yl)methyl)piperidin-4-yl)pyridin-2-yl)-1H-pyrazolo[3,4-b]pyridin-3-yl)-2-methylphenyl)ethyl)-1,2,4-oxadiazole-3-carboxamide], the DC50 is 1.21 nM. Against the preceding compound, the DC50 is about 3.3-fold lower.
In the case of `Cc1cc(-c2n[nH]c3ncc(-c4ccc(N5CCN(CC6CCN(c7ccc(N8CCC(=O)NC8=O)c(C)c7)CC6)CC5)cn4)cc23)ccc1[C@@H](C)NC(=O)c1noc(C(C)(C)C)n1` [Example 78, (R)-5-(tert-butyl)-N-(1-(4-(5-(5-(4-((1-(4-(2,4-dioxotetrahydropyrimidin-1(2H)-yl)-3-methylphenyl)piperidin-4-yl)methyl)piperazin-1-yl)pyridin-2-yl)-1H-pyrazolo[3,4-b]pyridin-3-yl)-2-methylphenyl)ethyl)-1,2,4-oxadiazole-3-carboxamide], the DC50 was determined as 1.75 nM. This DC50 and that of the compound before are within 1.5-fold of each other.
In turn, `Cc1cc(-c2n[nH]c3ncc(-c4ccc(N5CCN(CCCOc6ccc(C7CCC(=O)NC7=O)c(F)c6)CC5)cc4)cc23)ccc1[C@@H](C)NC(=O)c1noc(C(C)(C)C)n1` (stereo partly drawn) [Example 86, 5-(tert-butyl)-N-((1R)-1-(4-(5-(4-(4-(3-(4-(2,6-dioxopiperidin-3-yl)-3-fluorophenoxy)propyl)piperazin-1-yl)phenyl)-1H-pyrazolo[3,4-b]pyridin-3-yl)-2-methylphenyl)ethyl)-1,2,4-oxadiazole-3-carboxamide] came in with a half-maximal degradation concentration (DC50) of 3.95 nM.
